In patent US20090191253A2 (Creabilis Therapeutics S.P.A., priority 2005, published 2009):

Experiments:
ALK = molecular target: T1, ALK (Homo sapiens, UniProt Q9UM73); assay: Kinase inhibition profiling ALK (ELISA); format: biochemical
T1 construct: Cytoplasmic domain of human ALK [1089-1620; His (N, cleaved yes); made in house; host or cells: baculovirus expression system
Protocol: (§1) Each test compound was weighed and dissolved in DMSO to make 1 mM stock solution. The stock solution was diluted with DMSO to achieve 20 μM. The compound solution was diluted with the assay buffer to achieve 0.8 μM.

AXL = molecular target: T2, AXL (Homo sapiens, UniProt P30530); assay: Kinase inhibition profiling AXL (ELISA); format: biochemical
T2 construct: made in house; host or cells: baculovirus expression system
T2 sequence (P30530 473-894 limits assumed): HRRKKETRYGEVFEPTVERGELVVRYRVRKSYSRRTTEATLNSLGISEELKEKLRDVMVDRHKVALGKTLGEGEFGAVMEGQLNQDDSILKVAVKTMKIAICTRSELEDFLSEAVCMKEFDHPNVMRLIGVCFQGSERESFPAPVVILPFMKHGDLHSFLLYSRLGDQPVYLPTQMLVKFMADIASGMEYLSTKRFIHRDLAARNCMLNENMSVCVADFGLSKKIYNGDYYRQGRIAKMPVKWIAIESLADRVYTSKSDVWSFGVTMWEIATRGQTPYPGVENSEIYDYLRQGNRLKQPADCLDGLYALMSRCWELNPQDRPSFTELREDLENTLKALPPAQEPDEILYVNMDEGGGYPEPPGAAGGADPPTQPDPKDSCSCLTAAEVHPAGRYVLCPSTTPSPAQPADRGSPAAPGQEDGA
Protocol: (§2) In particular, the target kinases were Tyrosine kinases and Serine/Threonine kinases.
as §1

EGFR = molecular target: T3, EGFR (Homo sapiens, UniProt P00533); assay: Kinase inhibition profiling EGFR (ELISA); format: biochemical; note: ATP 5 µM
T3 construct: Cytoplasmic domain of human EGFR [669-1210 amino; made in house; host or cells: baculovirus expression system
Protocol: as §1

EphB2 = molecular target: T4, EphB2 (Homo sapiens, UniProt P29323); assay: Kinase inhibition profiling EphB2 (ELISA); format: biochemical
T4 construct: Cytoplasmic domain of human EphB2 [581-987 amino; made in house; host or cells: baculovirus expression system
T4 sequence (P29323 581-987 isoform P29323-3): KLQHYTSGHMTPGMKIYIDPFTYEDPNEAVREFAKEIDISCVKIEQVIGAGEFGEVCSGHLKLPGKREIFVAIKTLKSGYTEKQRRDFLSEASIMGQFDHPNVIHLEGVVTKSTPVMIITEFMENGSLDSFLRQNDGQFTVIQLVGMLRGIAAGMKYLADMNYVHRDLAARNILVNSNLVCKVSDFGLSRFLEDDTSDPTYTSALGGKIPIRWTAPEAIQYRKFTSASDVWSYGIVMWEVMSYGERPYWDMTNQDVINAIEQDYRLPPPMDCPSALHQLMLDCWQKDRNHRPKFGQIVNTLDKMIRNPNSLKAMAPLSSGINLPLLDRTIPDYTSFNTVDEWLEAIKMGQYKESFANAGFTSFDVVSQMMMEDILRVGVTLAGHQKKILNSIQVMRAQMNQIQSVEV
Protocol: as §1

FGFR1 = molecular target: T5, FGFR1 (Homo sapiens, UniProt P11362); assay: Kinase inhibition profiling FGFR1 (ELISA); format: biochemical
T5 construct: Cytoplasmic domain of human FGFR1 [396-820 amino; made in house; host or cells: baculovirus expression system
Protocol: as §1

FGFR2 = molecular target: T6, FGFR2 (Homo sapiens, UniProt P21802); assay: Kinase inhibition profiling FGFR2 (ELISA); format: biochemical; note: ATP 20 µM
T6 construct: Cytoplasmic domain of human FGFR2 [399-821 amino; made in house; host or cells: baculovirus expression system
T6 sequence (P21802 399-821): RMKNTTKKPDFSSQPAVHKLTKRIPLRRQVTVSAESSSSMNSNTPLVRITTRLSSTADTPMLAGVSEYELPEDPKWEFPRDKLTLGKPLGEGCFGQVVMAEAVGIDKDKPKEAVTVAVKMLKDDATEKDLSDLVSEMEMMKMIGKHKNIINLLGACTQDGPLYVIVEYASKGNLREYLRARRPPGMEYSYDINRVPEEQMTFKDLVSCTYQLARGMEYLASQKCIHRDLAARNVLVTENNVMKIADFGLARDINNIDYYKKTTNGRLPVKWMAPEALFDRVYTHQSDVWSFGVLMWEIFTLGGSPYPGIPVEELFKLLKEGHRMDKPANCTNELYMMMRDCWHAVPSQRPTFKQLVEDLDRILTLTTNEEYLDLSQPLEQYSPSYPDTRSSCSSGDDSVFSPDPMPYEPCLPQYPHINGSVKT
Protocol: as §1

JAK2 = molecular target: T7, JAK2 (Homo sapiens, UniProt O60674); assay: Kinase inhibition profiling JAK2 (ELISA); format: biochemical
T7 construct: Kinase domain (KD) of human JAK2 [826-1132 amino; made in house; host or cells: baculovirus expression system
T7 sequence (O60674 826-1132): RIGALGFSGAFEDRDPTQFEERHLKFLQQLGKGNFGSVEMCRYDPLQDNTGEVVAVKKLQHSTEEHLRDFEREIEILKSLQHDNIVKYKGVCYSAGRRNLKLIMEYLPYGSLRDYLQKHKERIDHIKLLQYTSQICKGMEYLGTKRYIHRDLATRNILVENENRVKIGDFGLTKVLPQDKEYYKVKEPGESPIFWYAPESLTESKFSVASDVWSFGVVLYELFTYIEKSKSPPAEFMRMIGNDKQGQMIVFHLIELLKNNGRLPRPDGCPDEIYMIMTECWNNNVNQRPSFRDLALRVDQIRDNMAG
Protocol: as §1

FLT3 = molecular target: T8, FLT3 (Homo sapiens, UniProt P36888); assay: Kinase inhibition profiling FLT3 (ELISA); format: biochemical
T8 construct: made in house; host or cells: baculovirus expression system
T8 sequence (P36888 564-993): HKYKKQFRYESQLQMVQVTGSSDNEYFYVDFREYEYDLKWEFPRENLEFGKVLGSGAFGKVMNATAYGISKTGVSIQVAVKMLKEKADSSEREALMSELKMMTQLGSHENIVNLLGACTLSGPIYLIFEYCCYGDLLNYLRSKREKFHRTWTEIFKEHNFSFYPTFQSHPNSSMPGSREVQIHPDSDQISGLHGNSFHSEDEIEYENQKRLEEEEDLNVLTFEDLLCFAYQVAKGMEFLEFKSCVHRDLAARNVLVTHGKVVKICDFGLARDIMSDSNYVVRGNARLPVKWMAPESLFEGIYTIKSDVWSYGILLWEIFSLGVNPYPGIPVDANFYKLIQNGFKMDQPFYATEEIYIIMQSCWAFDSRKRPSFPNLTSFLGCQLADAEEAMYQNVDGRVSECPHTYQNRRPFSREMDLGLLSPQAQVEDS
Protocol: as §1

FMS(CSFR) = molecular target: T9, FMS(CSFR) (Homo sapiens, UniProt P07333); assay: Kinase inhibition profiling FMS(CSFR) (ELISA); format: biochemical
T9 construct: Cytoplasmic domain of human FMS [538-972 amino; made in house; host or cells: baculovirus expression system
Protocol: as §1

PDGFRα = molecular target: T10, PDGFRα (Homo sapiens, UniProt P16234); assay: Kinase inhibition profiling PDGFRα (ELISA); format: biochemical
T10 construct: Cytoplasmic domain of human PDGFRα [550-1089; made in house; host or cells: baculovirus expression system
Protocol: as §1

RET = molecular target: T11, RET (Homo sapiens, UniProt P07949); assay: Kinase inhibition profiling RET (ELISA); format: biochemical; note: ATP 5 µM
T11 construct: Cytoplasmic domain of human RET [658-1114 amino acids; made in house; host or cells: baculovirus expression system
Protocol: as §1

LCK = molecular target: T12, LCK (Homo sapiens, UniProt P06239); assay: Kinase inhibition profiling LCK (ELISA); format: biochemical
T12 construct: made in house; host or cells: baculovirus expression system
T12 sequence (P06239 whole entry): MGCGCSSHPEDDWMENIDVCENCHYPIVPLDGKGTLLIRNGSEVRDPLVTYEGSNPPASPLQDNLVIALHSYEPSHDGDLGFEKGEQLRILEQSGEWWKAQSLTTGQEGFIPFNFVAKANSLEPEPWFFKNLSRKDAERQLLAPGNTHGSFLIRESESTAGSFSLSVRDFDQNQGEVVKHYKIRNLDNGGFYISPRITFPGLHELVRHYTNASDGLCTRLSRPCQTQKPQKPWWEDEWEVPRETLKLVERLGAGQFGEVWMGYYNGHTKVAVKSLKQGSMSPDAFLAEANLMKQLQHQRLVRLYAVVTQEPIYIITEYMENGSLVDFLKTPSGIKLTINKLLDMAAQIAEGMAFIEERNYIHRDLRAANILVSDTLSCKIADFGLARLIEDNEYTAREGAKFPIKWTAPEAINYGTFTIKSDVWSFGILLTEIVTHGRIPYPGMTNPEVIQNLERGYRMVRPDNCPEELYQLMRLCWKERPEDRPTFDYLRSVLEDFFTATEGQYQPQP
Protocol: as §2, §1

SRC = molecular target: T13, SRC (Homo sapiens, UniProt P12931); assay: Kinase inhibition profiling SRC (ELISA); format: biochemical
T13 construct: made in house; host or cells: baculovirus expression system
T13 sequence (P12931 whole entry): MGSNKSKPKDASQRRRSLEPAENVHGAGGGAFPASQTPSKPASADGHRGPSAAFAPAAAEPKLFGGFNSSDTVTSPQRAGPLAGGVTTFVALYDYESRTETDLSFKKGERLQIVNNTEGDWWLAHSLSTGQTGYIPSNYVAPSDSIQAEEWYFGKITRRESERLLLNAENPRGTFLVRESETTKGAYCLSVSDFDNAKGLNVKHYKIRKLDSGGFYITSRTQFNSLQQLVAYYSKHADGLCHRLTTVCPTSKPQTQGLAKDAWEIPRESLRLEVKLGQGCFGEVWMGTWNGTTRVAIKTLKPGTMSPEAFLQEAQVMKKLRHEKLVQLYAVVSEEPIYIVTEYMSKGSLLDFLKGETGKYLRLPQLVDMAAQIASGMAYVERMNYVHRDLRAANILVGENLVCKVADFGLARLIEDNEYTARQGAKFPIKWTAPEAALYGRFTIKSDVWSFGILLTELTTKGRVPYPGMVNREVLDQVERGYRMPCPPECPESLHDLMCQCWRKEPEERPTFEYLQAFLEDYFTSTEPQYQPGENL
Protocol: as §1

YES = molecular target: T14, YES (Homo sapiens, UniProt P07947); assay: Kinase inhibition profiling YES (ELISA); format: biochemical
T14 construct: made in house; host or cells: baculovirus expression system
Protocol: as §2, §1

TrkB = molecular target: T15, TrkB (Homo sapiens, UniProt Q16620); assay: Kinase inhibition profiling TrkB (ELISA); format: biochemical
T15 construct: Cytoplasmic domain of human TRKB [456-822 amino; made in house; host or cells: baculovirus expression system
Protocol: as §2, §1

FLT1 = molecular target: T16, FLT1 (Homo sapiens, UniProt P17948); assay: Kinase inhibition profiling FLT1 (ELISA); format: biochemical; note: ATP 20 µM
T16 construct: Cytoplasmic domain of human FLT1 [781-1338 amino; made in house; host or cells: baculovirus expression system
Protocol: as §2, §1

PKACα = molecular target: T17, PKACα (Homo sapiens, UniProt P17612); assay: Kinase inhibition profiling PKACα (IMAP); format: biochemical
T17 construct: made in house; host or cells: baculovirus expression system
Protocol: as §2, §1

PKCε = molecular target: T18, PKCε (Homo sapiens, UniProt Q02156); assay: Kinase inhibition profiling PKCε (IMAP); format: biochemical
T18 construct: made in house; host or cells: baculovirus expression system
Protocol: as §1

PKCγ = molecular target: T19, PKCγ (Homo sapiens, UniProt P05129); assay: Kinase inhibition profiling PKCγ (IMAP); format: biochemical
T19 construct: made in house; host or cells: baculovirus expression system
Protocol: as §1

CHK1 = molecular target: T20, CHK1 (Homo sapiens, UniProt O14757); assay: Kinase inhibition profiling CHK1 (IMAP); format: biochemical
T20 construct: His (N); made in house; host or cells: baculovirus expression system
Protocol: as §1

MAPKAPK2 = molecular target: T21, MAPKAPK2 (Homo sapiens, UniProt P49137); assay: Kinase inhibition profiling MAPKAPK2 (IMAP); format: biochemical
T21 construct: His (N); made in house; host or cells: baculovirus expression system
T21 sequence (P49137 whole entry): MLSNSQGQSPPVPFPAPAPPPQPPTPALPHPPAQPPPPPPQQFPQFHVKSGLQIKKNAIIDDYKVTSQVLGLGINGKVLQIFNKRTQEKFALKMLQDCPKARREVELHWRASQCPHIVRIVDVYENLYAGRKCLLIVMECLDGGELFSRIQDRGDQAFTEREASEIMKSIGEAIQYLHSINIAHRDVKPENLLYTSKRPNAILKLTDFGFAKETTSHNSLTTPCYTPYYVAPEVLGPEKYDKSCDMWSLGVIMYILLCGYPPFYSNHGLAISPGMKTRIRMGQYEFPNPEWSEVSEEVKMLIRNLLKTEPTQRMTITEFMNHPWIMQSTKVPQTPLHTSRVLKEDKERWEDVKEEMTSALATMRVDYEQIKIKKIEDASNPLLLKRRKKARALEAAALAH
Protocol: as §1

Erk2 = molecular target: T22, Erk2 (Homo sapiens, UniProt P28482); assay: Kinase inhibition profiling Erk2 (IMAP); format: biochemical
T22 construct: Human Erk2 containing 360 amino acids was expressed; His (N); made in house; host or cells: E. coli
T22 sequence (P28482 whole entry): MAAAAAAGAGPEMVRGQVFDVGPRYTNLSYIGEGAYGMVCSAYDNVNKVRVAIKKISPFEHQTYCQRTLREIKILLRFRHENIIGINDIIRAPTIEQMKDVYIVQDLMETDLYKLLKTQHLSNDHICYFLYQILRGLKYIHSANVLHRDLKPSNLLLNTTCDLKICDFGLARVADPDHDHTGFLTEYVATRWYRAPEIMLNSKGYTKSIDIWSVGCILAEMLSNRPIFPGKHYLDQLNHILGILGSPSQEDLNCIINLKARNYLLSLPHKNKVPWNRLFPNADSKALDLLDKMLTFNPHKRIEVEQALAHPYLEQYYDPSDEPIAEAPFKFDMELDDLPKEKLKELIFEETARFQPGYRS
Protocol: as §1

JNK1 = molecular target: T23, JNK1 (Homo sapiens, UniProt P45983); assay: Kinase inhibition profiling JNK1 (ELISA); format: biochemical
T23 construct: Human JNK1 containing 364 amino acids was expressed; His (C); made in house; host or cells: E. coli
Protocol: as §1

p38β = assay: Kinase inhibition profiling p38β (IMAP); format: biochemical, human; details: K-252a 200 nM, ATP 10 μM
Protocol: as §1

IKKβ = molecular target: T24, IKKβ (Homo sapiens, UniProt O14920); assay: Kinase inhibition profiling IKKβ (IMAP); format: biochemical
T24 construct: Human IKKβ with 662 amino acids were expressed; His (N); made in house; host or cells: insect cells
Protocol: as §1

[1] = test system: bovine aorta smooth muscle cells (BASMC); assay: Proliferation assay, HMGB1-induced BASMC proliferation; format: cell-based; details: K-252a 3, 10, 30, 100 or 300 nM; HMGB1 25 ng/ml (1 nM); days 1-4
Protocol: Proliferation assays were performed using an already described and validated method (1). BASMC cells (bovine aorta smooth muscle cells) were seeded in 6-well plates (10^5 cells/well) and grown in RPMI medium supplemented with 20% FCS. After 24 h, the medium was replaced with serum-free RPMI and cell were then starved for 16 hours to synchronize the cell population. […] Each experimental point represents the mean+/−SD of triplicate determinations. The experiment was repeated three times. BASMC cell proliferation was determined by detaching the cells from the plate at the indicated times (on days 1, 2, 3, and 4 of culturing) and counting the Trypan-blue excluding cells under the microscope.

HMGB1 = molecular target: T25, HMGB1 (Homo sapiens, UniProt P09429); assay: Fluorescence assays of K-252a/HMGB1 interaction; format: binding
T25 construct: host or cells: bacteria (inferred from the mention of bacterial contaminants)
T25 sequence (P09429 whole entry, species assumed): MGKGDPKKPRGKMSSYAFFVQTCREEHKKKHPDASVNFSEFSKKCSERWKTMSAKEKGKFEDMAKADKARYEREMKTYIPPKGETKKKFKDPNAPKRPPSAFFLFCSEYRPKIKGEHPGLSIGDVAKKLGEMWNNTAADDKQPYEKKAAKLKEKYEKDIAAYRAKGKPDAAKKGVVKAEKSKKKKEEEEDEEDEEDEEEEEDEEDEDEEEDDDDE

TrkC = TrkC (Homo sapiens, UniProt Q16288); assay: Kinase inhibition profiling TrkC (ELISA)
TrkC, sequence (Q16288 456-839): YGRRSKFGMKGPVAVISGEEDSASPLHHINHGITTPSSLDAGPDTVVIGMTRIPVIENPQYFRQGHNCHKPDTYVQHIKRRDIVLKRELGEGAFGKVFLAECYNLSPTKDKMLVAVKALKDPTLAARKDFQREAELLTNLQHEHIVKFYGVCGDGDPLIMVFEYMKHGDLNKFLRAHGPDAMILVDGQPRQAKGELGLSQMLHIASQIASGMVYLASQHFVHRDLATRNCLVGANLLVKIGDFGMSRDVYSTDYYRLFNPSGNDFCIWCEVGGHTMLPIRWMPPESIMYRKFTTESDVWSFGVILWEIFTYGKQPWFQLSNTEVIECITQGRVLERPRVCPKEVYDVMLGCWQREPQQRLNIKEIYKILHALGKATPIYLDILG
Protocol: as §2, §1

T1 sequence (Q9UM73 1089-1620): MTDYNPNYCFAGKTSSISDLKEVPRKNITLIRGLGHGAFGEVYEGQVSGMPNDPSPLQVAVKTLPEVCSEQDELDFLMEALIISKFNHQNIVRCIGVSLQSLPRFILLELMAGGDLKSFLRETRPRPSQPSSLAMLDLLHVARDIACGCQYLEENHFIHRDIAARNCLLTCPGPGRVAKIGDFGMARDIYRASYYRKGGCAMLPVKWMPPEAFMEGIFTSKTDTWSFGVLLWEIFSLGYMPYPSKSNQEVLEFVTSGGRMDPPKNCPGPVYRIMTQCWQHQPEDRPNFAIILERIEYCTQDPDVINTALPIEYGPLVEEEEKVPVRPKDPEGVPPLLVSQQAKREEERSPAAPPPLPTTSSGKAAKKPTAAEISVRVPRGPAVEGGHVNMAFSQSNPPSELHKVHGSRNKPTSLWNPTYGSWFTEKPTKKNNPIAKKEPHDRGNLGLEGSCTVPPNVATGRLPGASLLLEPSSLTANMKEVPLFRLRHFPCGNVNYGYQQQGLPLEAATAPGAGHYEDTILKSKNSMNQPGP

In the case of `COC(=O)[C@]1(O)CC2O[C@@]1(C)n1c3ccccc3c3c4c(c5c6ccccc6n2c5c31)C(=O)NC4` [K-252a], the inhibition at 0.2 µM (ALK) is reported as 69.5%, the inhibition at 0.2 µM (AXL) is reported as 51.5% and the inhibition at 0.2 µM (EGFR) is reported as 16.4%. The inhibition at 0.2 µM (EphB2) was 0.4%, the inhibition at 0.2 µM (FGFR1) was 57.9% and the inhibition at 0.2 µM (FGFR2) was 67.2%. For the same molecule, the inhibition at 0.2 µM (JAK2) was 99.5%, the inhibition at 0.2 µM (FLT3) was 95.8% and the inhibition at 0.2 µM (FMS(CSFR)) was 55.7%. For the same molecule, the inhibition at 0.2 µM (PDGFRα) was 96.1%, the inhibition at 0.2 µM (RET) was 94.2% and the inhibition at 0.2 µM (LCK) was 65.2%. It also gave an inhibition at 0.2 µM (SRC) of 20.6%, an inhibition at 0.2 µM (YES) of 65.1% and an inhibition at 0.2 µM (TrkB) of 98.2%. The inhibition at 0.2 µM (FLT1) was 73.9%, the inhibition at 0.2 µM (PKACα) was 69.4% and the inhibition at 0.2 µM (PKCε) was 60.9%. It also gave an inhibition at 0.2 µM (PKCγ) of 53.3%, an inhibition at 0.2 µM (CHK1) of 92.8% and an inhibition at 0.2 µM (MAPKAPK2) of 44.3%. For the same molecule, the inhibition at 0.2 µM (Erk2) was 14.2%, the inhibition at 0.2 µM (JNK1) was 94.3% and the “% Inhibition” value (p38β) was −0.2%. The inhibition at 0.2 µM (IKKβ) was 2.7%, the “HMGB1-induced BASMC cell proliferation” value [1] was “antagonizes BASMC cell proliferation at all the concentrations tested in a time-dependent fashion and in a nM range” and the “direct interaction between K-252a and HMGB1” value (HMGB1) was “absence of a direct interaction”. The inhibition at 0.2 µM (TrkC) was 94.4%.
